Laboratory results reported in US5053070A, “Pyrimidine derivatives, preparation processes thereof, herbicide containing the same, and herbicidal compositions containing the same along with other active ingredient” (Mitsui Toatsu Chemicals, Incorporated, priority 1988, dated 1991).

Tests used:
Assay type in all cases: in vivo
barnyardgrass [1] = test: Treatment of soil under submerged condition, post-emergence (Test 5); settings: 30 g ai/a granule, post-emergence (barnyardgrass two-leaf stage), 30 days later
Method: (§1) 1/5000-are Wagner pots were filled with soil. Seeds or tubers of barnyardgrass, Monochoria vaginalis, bulrush, Sagittaria pygmaea, Cyperus serroylnus and Eleocharis kuroguwai were seeded or planted under submerged condition. Two pairs of rice seedlings (2-3 leaf stage), which had been reared in advance, were transplanted to each pot and were allowed to grow in a green house. Each pair consisted of two rice seedlings. When the barnyardgrass grew to two-leaf stage, each pot was treated with a granule which had been prepared by processing a predetermined amount of the test composition in accordance with a similar method to the method described in Formulation Example 9. The state of emergence of weeds and the state of injury of rice were observed 30 days later.
(§2) In the table, the degrees of damages of the test plants and the degrees of injury of the rice are shown in a similar manner to Example 2.

Sagittaria pygmaea [2] = test: as above; settings: 30 g ai/a granule, 30 days later
Method: as §1, §2

bulrush [3] = test: as above; settings: 30 g ai/a granule, 30 days later
Method: as §1, §2

rice = test: Treatment of soil under submerged condition, pre-emergence (Test 4), injury; settings: 30 g ai/a granule, 30 days later
Method: as §1, with “seroylnus” for “serroylnus”, “germinate” for “grow”, “One day later (before emergence of weeds),” for “When the barnyardgrass grew to two-leaf stage,”
(§3) In the table, the degrees of damages of the test plants and the degrees of injury of rice are shown in a similar manner to Example 2.

barnyardgrass [4] = test: Treatment of soil under submerged condition, pre-emergence (Test 4); settings: 30 g ai/a granule, 30 days later
Method: as §1, with “seroylnus” for “serroylnus”, “germinate” for “grow”, “One day later (before emergence of weeds),” for “When the barnyardgrass grew to two-leaf stage,”
as §3

Sagittaria pygmaea [5] = test: as above; settings: 30 g ai/a granule, 30 days later
Method: as §1, with “seroylnus” for “serroylnus”, “germinate” for “grow”, “One day later (before emergence of weeds),” for “When the barnyardgrass grew to two-leaf stage,”
as §3

bulrush [6] = test: as above; settings: 30 g ai/a granule, 30 days later
Method: as §1, with “seroylnus” for “serroylnus”, “germinate” for “grow”, “One day later (before emergence of weeds),” for “When the barnyardgrass grew to two-leaf stage,”
as §3

barnyardgrass [7] = test: Upland soil application test (Test 2); settings: 30 g ai/a, soil spray before emergence, 30 days later
Method: (§4) Resin-made 1/2500-are pots were filled with the soil of an upland field. After they were fertilized, soybean, peanut and cotton were seeded and 2-3 cm soil covering was applied. Seeds of redroot pigweed, common lambsquarters, barnyardgrass, green foxtail, large crabgrass, foxtail meadow and johnsongrass had been uniformly mixed with the soil. They were allowed to germinate in a green house. One day later (before emergence of weeds), a wettable powder prepared from a predetermined amount of each test compound in a similar manner to the method described in Formulation Example 1 was diluted with water and then sprayed evenly at an application rate equal to 10 l per are onto the surface of the soil by means of a pressure-operated ULV (ultra low volume) sprayer. Influence to the crops and weeds were observed 30 days later. The results are shown in Table 3, in which the degree of damages of each test plant and the degree of injury to each crop were determined by comparing the air-dried weights of the test plant and crop with those of the corresponding plant and crop in untreated pots and are shown in accordance with the following standard: […]

redroot pigweed = test: Upland soil application test (Test 2); settings: 30 g ai/a, soil spray before emergence, 30 days later
Method: as §4

green foxtail = test: Upland soil application test (Test 2); settings: 30 g ai/a, soil spray before emergence, 30 days later
Method: as §4

foxtail meadow = test: Upland soil application test (Test 2); settings: 30 g ai/a, soil spray before emergence, 30 days later
Method: as §4

large crabgrass = test: Upland soil application test (Test 2); settings: 30 g ai/a, soil spray before emergence, 30 days later
Method: as §4

johnsongrass = test: Upland soil application test (Test 2); settings: 30 g ai/a, soil spray before emergence, 30 days later
Method: as §4

common lambsquarters = test: Upland soil application test (Test 2); settings: 30 g ai/a, soil spray before emergence, 30 days later
Method: as §4

cotton = test: Upland foliar application test (Test 3), crop injury; settings: 30 g ai/a, foliar spray at 2-3 leaves, 30th day
Method: (§5) Resin-made 1/10000-are pots were filled with the soil of an upland field. Redroot pigweed, common lambsquarters, foxtail meadow, johnsongrass, barnyardgrass, green foxtail, large crabgrass, soybean, peanut and cotton were separately seeded and were allowed to germinate in a green house. When each plant grew to the stage of 2-3 leaves, an emulsion formulated from a predetermined amount of each test compound in a similar manner to the method described in Formulation Example 11 was diluted with water to a predetermined dilution rate and then sprayed at an application rate equal to 5 l per are onto the foliage of each plant by means of a pressure-operated ULV (ultra low volume) sprayer. Influence to the crops and weeds were observed on the 30th day after the spray of the herbicides. The results are shown in Table 4 in which the degree of damages of each test plant and the degree of injury to each crop are shown in a similar manner to Test 2.

soybean = test: as above; settings: 30 g ai/a, foliar spray at 2-3 leaves, 30th day
Method: as §5

peanut = test: as above; settings: 30 g ai/a, foliar spray at 2-3 leaves, 30th day
Method: as §5

Structure (SMILES) | Herbicidal effects Barnyardgrass (barnyardgrass [1]) | Herbicidal effects Sagittaria Pygmaea (Sagittaria pygmaea [2]) | Herbicidal effects Bulrush (bulrush [3]) | Injury Rice (rice) | Herbicidal effects Barnyardgrass (barnyardgrass [4]) | Herbicidal effects Sagittaria Pygmaea (Sagittaria pygmaea [5]) | Herbicidal effects Bulrush (bulrush [6]) | Herbicidal effects Barnyardgrass (barnyardgrass [7]) | Herbicidal effects Redroot pigweed (redroot pigweed) | Herbicidal effects Green foxtail (green foxtail) | Herbicidal effects Foxtail meadow (foxtail meadow) | Herbicidal effects Large crabgrass (large crabgrass) | Herbicidal effects Johnsongrass (johnsongrass) | Herbicidal effects Common lambsquarters (common lambsquarters) | Injury Cotton (cotton) | Injury Soybean (soybean) | Injury Peanut (peanut)
C=C(C)CON=Cc1ccccc1Oc1nc(OC)cc(OC)n1 [compound 5] | 5 (0-5 (Death)) | 5 (0-5 (Death)) | 5 (0-5 (Death)) | 0 (91-100 (No damages)) | 4 (6-10 (Severe damages)) | 5 (0-5 (Death)) | 4 (6-10 (Severe damages)) | 5 (0-5 (Death)) | 4 (6-10 (Severe damages)) | 5 (0-5 (Death)) | 5 (0-5 (Death)) | 5 (0-5 (Death)) | 5 (0-5 (Death)) | 4 (6-10 (Severe damages)) | 0 (91-100 (No damages)) | 0 (91-100 (No damages)) | 0 (91-100 (No damages))
COc1cc(OC)nc(Oc2ccccc2C=NOC(C)c2ccccc2)n1 (centres unmarked) [compound 21] | 3 (11-40 (Medium damages)) | 3 (11-40 (Medium damages)) | 3 (11-40 (Medium damages)) | 0 (91-100 (No damages)) | 3 (11-40 (Medium damages)) | 3 (11-40 (Medium damages)) | 3 (11-40 (Medium damages)) | 3 (11-40 (Medium damages)) | 3 (11-40 (Medium damages)) | 4 (6-10 (Severe damages)) | 3 (11-40 (Medium damages)) | 4 (6-10 (Severe damages)) | 4 (6-10 (Severe damages)) | 3 (11-40 (Medium damages)) | 0 (91-100 (No damages)) | 0 (91-100 (No damages)) | 0 (91-100 (No damages))
COc1cc(OC)nc(Oc2ccccc2C=NOCc2ccccc2Cl)n1 [compound 16] | 4 (6-10 (Severe damages)) | 3 (11-40 (Medium damages)) | 4 (6-10 (Severe damages)) | 0 (91-100 (No damages)) | 4 (6-10 (Severe damages)) | 4 (6-10 (Severe damages)) | 3 (11-40 (Medium damages)) | 3 (11-40 (Medium damages)) | 3 (11-40 (Medium damages)) | 3 (11-40 (Medium damages)) | 3 (11-40 (Medium damages)) | 4 (6-10 (Severe damages)) | 3 (11-40 (Medium damages)) | 3 (11-40 (Medium damages)) | 0 (91-100 (No damages)) | 0 (91-100 (No damages)) | 0 (91-100 (No damages))
COc1cc(OC)nc(Oc2ccccc2C=NOCC=Cc2cccc(Cl)c2Cl)n1 [compound 41] | 5 (0-5 (Death)) | 4 (6-10 (Severe damages)) | 4 (6-10 (Severe damages)) | 0 (91-100 (No damages)) | 5 (0-5 (Death)) | 5 (0-5 (Death)) | 4 (6-10 (Severe damages)) | 5 (0-5 (Death)) | 5 (0-5 (Death)) | 4 (6-10 (Severe damages)) | 4 (6-10 (Severe damages)) | 5 (0-5 (Death)) | 4 (6-10 (Severe damages)) | 4 (6-10 (Severe damages)) | 0 (91-100 (No damages)) | 0 (91-100 (No damages)) | 0 (91-100 (No damages))
COc1cc(OC)nc(Oc2ccccc2C=NOCC=Cc2c(F)cccc2F)n1 [compound 33] | 5 (0-5 (Death)) | 4 (6-10 (Severe damages)) | 5 (0-5 (Death)) | 0 (91-100 (No damages)) | 4 (6-10 (Severe damages)) | 5 (0-5 (Death)) | 4 (6-10 (Severe damages)) | 5 (0-5 (Death)) | 4 (6-10 (Severe damages)) | 5 (0-5 (Death)) | 5 (0-5 (Death)) | 5 (0-5 (Death)) | 5 (0-5 (Death)) | 4 (6-10 (Severe damages)) | 0 (91-100 (No damages)) | 0 (91-100 (No damages)) | 0 (91-100 (No damages))
COc1cc(OC)nc(Oc2ccccc2C=O)n1 [B, reference compound] | 5 (0-5 (Death)) | 4 (6-10 (Severe damages)) | 5 (0-5 (Death)) | 5 (0-5 (Death)) | 3 (11-40 (Medium damages)) | 5 (0-5 (Death)) | 3 (11-40 (Medium damages)) | 4 (6-10 (Severe damages)) | 3 (11-40 (Medium damages)) | 4 (6-10 (Severe damages)) | 4 (6-10 (Severe damages)) | 4 (6-10 (Severe damages)) | 4 (6-10 (Severe damages)) | 3 (11-40 (Medium damages)) | 5 (0-5 (Death)) | 5 (0-5 (Death)) | 5 (0-5 (Death))
COc1cc(OC)nc(Oc2ccccc2C=NOCC=Cc2ccc(Cl)c(Cl)c2)n1 [compound 31] | 5 (0-5 (Death)) | 4 (6-10 (Severe damages)) | 4 (6-10 (Severe damages)) | 0 (91-100 (No damages)) | 3 (11-40 (Medium damages)) | 4 (6-10 (Severe damages)) | 3 (11-40 (Medium damages)) | 4 (6-10 (Severe damages)) | 3 (11-40 (Medium damages)) | 4 (6-10 (Severe damages)) | 4 (6-10 (Severe damages)) | 4 (6-10 (Severe damages)) | 5 (0-5 (Death)) | 3 (11-40 (Medium damages)) | 0 (91-100 (No damages)) | 0 (91-100 (No damages)) | 0 (91-100 (No damages))
